As a reminder, the IC50 is the concentration needed to halve the response being measured. A high value points to a need for much substance.

The structures appear in SMILES notation. Where only a bound is given, the exact number is not on record here.

The test deals with L1210. Kind of test: In vitro cytotoxic activity against L1210 murine leukemia cells. The test is classed as functional, cell-based. The note with it: Mus musculus.
On to `CCOC(CCCN1C(=O)c2cccc3c2c1cc1cc(OC)c(OCc2ccccc2)c(OC)c13)OCC`, for which half-maximal inhibition (IC50) was put at 21.2 µM.
Regarding `COc1cc2c(cc3c4c(cc5c(c42)OCO5)C(=O)N3CCCN(C)C)c(OC)c1OC(C)C`, the IC50 is 4.3 µM.
In turn, `COc1cc2cc3c4c(cccc4c2c(OC)c1OCc1ccccc1)C(=O)N3CCCCN(C)C` registered an IC50 of 10.8 µM.
As for `COc1ccc(CN2C(=O)c3cc(OCc4ccccc4)cc4c3c2cc2cc(OC)c(OCc3ccccc3)c(OC)c24)cc1`, the figure is more than 100 µM; as for `COc1cc2c3c(cc4cc(OC)c(O)c(OC)c4c3c1)N(C)C2=O`, 1.6 µM; as for `COc1cc2c3c(cc4ccc(O)cc4c3c1)N(CCCN(C)C)C2=O`, 1.6 µM.
As for `COc1ccc(CN2C(=O)c3cc(O)cc4c3c2cc2cc(OC)c(O)c(OC)c24)cc1`, the figure is 2.6 µM; as for `CCOC(CCN1C(=O)c2cc(OC)cc3c2c1cc1ccc(OC)cc13)OCC`, more than 10 µM.
As for `COc1cc2c3c(cc4cc(OC)c(O)c(OC)c4c3c1)N(CCCN(C)C)C2=O`, the figure is 5.4 µM.
For the compound `COc1cc2c(cc3c4c(cc5c(c42)OCO5)C(=O)N3CCC=O)c(OC)c1OC(C)C`, the IC50 was found to be 7.8 µM.
For the compound `CN1C(=O)c2ccc(OCc3ccccc3)c3c2c1cc1cc(OCc2ccccc2)ccc13`, the IC50 worked out at 79.2 µM.
Compound `CCN(CC)CCN1C(=O)c2cc(OC)cc3c2c1cc1cc(OC)c(O)c(OC)c13` registered an IC50 of 2.3 µM.
In turn, `COc1ccc2cc3c4c(cc(OC)cc4c2c1)C(=O)N3CCC=O` had an IC50 of 5.2 µM.
With `COc1cc2cc3c4c(cccc4c2c(OC)c1OCc1ccccc1)C(=O)N3CCCC=O` the figure was 17.6 µM; with `COc1cc2cc3c4c(cccc4c2c(OC)c1O)C(=O)N3CCCCN(C)C`, 1.8 µM; with `COc1ccc(CN2C(=O)c3cc(OC)cc4c3c2cc2cc(OC)c(OC)c(OC)c24)cc1`, more than 10 µM.
With `COc1cc2c3c(cc4cc(OC)c(OCc5ccccc5)c(OC)c4c3c1)N(CCC=O)C2=O` the figure was 4.7 µM; with `COc1ccc(CN2C(=O)c3cc(OC)cc4c3c2cc2cc(OC)ccc24)cc1`, 66.6 µM; with `COc1cc2c3c(cc4cc(OC)c(OCc5ccccc5)c(OC)c4c3c1)N(C)C2=O`, more than 10 µM.
`CCOC(CCN1C(=O)c2cc3c(c4c2c1cc1c(OC)c(OC(C)C)c(OC)cc14)OCO3)OCC` had an IC50 of 16.3 µM.

These data come from ChEMBL document CHEMBL1135005, “Synthesis and biological evaluation of aristolactams” (Bioorg Med Chem Lett, 2002).
